From US20240287138A1, “CYCLIC PEPTIDES FOR INHIBITING TNF RECEPTOR 1 ACTIVITY” (Merck Sharp & Dohme LLC, priority 2023, published 2024)
Numbered stars: 1 amine (or outer) side, 2 acyl side, 3 side chain; on linkers, the order of the positions; unused ones are H or OH. Bridge positions count the residues as written; N and C are the ends. Square brackets hold non-standard residues; d marks the D form. Peptide text beside a SMILES is read from it. Trp(βS-Me,7-OMe) = COc1cccc2c([C@H](C)[C@H](N)C(=O)O)c[nH]c12; X24 = O=C(O)c1ccc([C@@H](O)[C@H](N[*:1])C(=O)[*:2])cc1; X28 = NC(=O)c1ccc([C@H](O)[C@H](N[*:1])C(=O)[*:2])cc1; Trp(βS-Me) = C[C@@H](c1c[nH]c2ccccc12)[C@H](N)C(=O)O; Trp(7-CN) = N#Cc1cccc2c(C[C@H](N)C(=O)O)c[nH]c12; Trp(7-Cl) = N[C@@H](Cc1c[nH]c2c(Cl)cccc12)C(=O)O; Phe(4-CONH2) = NC(=O)c1ccc(C[C@H](N)C(=O)O)cc1; Phe(4-COOH) = N[C@@H](Cc1ccc(C(=O)O)cc1)C(=O)O; Phe(4-CH2NH2) = NCc1ccc(C[C@H](N)C(=O)O)cc1; Pip(5R-OH) = O=C(O)[C@@H]1CC[C@@H](O)CN1; X13 = O=C([C@H]1CC[C@@H](N[*:1])C1)[*:2]; X1 = O=C([C@@H]1CC[C@H](N[*:1])C1)[*:2]; Pip(4-aza) = O=C(O)[C@@H]1CNCCN1; 4Pal = N[C@@H](Cc1ccncc1)C(=O)O; NMeE = CN[C@@H](CCC(=O)O)C(=O)O; dHyp = O=C(O)[C@H]1C[C@H](O)CN1; Cit = NC(=O)NCCC[C@H](N)C(=O)O; αMeS = C[C@](N)(CO)C(=O)O; Nle = CCCC[C@H](N)C(=O)O; Sar = CNCC(=O)O

How the values were obtained:
[1] = molecular target: T1, human TNFR1 extracellular domain (ECD) protein (Homo sapiens, UniProt P19438); assay: SPR binding affinity to captured human TNFR1 ECD
T1 construct: HRV 3C protease cleavage site (C); 6His (C, cleaved yes); made in house; host or cells: Sf21 insect cells (baculovirus), secreted
T1 sequence (P19438 30-211): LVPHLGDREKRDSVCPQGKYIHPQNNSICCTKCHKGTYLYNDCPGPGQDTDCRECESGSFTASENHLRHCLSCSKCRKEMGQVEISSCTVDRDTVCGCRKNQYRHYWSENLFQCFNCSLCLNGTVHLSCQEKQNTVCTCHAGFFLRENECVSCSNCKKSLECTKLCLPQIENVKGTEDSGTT
Method in brief: (§1)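 Insect-cell human receptor ECDs, enzymatically biotinylated, immobilized via streptavidin capture chip. Peptide binding and dissociation measured in RU in pH 7.4 HEPES buffer containing 2% DMSO; chip regenerated per analyte. Rate constants give affinity.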

human TNFR2 ECD protein = molecular target: T2, human TNFR2 ECD protein (Homo sapiens, UniProt P20333); assay: SPR off-target binding (selectivity) to human TNFR2 ECD
T2 construct: HRV 3C protease cleavage site (C); 6His (C, cleaved yes); made in house; host or cells: Sf21 insect cells (baculovirus), secreted
T2 sequence (P20333 23-257): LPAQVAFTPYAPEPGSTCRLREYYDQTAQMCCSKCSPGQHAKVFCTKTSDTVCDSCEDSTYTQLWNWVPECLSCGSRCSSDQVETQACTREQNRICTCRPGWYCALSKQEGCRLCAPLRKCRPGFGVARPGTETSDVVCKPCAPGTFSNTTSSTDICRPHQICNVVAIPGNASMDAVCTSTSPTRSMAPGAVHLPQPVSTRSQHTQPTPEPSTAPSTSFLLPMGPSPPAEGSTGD
Method in brief: as §1

[2] = molecular target: T3, TNFα-induced NF-κB signal transduction pathway (TNFR1 signaling) in THP-1 cells (Homo sapiens, UniProt P19438); assay: THP-1 Lucia NF-κB reporter cell assay, inhibition of TNFα-induced NF-κB signaling; type: cell-based; conditions: THP-1 NF-κB Lucia reporter cells, 10 ng/mL TNFα, 16-18 h, secreted luciferase; read-out: THP-1 IC50
T3 sequence (P19438 30-455): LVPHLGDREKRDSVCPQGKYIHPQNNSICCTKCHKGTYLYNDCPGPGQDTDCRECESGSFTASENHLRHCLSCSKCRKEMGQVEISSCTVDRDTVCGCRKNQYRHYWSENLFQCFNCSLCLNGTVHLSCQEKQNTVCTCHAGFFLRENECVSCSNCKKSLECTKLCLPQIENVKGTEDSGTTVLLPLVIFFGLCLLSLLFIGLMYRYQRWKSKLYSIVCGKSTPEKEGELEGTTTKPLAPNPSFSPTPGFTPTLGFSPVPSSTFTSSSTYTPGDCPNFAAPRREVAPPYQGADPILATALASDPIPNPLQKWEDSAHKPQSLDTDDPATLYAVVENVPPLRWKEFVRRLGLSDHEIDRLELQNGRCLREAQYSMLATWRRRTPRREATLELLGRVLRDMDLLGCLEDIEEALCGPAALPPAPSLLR
Method in brief: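 THP-1 Lucia NF-κB cells, 20k/well, no selection antibiotics; peptide pre-inc 1 h 37 °C; + recombinant human TNFα 10 ng/mL final; o.n.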

| SMILES | Kd [1] [nM] | Kd (human TNFR2 ECD protein) [nM] | IC50 [2] [nM] |
| --- | --- | --- | --- |
| C[C@@H](c1c[nH]c2ccccc12)[C@@H]1NC(=O)CN(C)C(=O)[C@H](Cc2c[nH]cn2)NC(=O)[C@H](Cc2ccc(C(=O)O)cc2)NC(=O)[C@](C)(CO)NC(=O)[C@H](Cc2c[nH]c3c(Cl)cccc23)NC(=O)[C@H](Cc2ccc(C(=O)O)cc2)NC(=O)[C@H](CC(N)=O)NC(=O)[C@H]2CCCN2C(=O)[C@H]([C@@H](C)c2c[nH]c3ccccc23)NC(=O)[C@H](CO)NC(=O)[C@H](Cc2ccc(CN)cc2)NC(=O)[C@H](CCCNC(N)=O)NC(=O)CSC[C@@H](C(N)=O)NC1=O [SEQ ID NO. 215] ({CH2CO}-[Cit][Phe(4-CH2NH2)]S[Trp(βS-Me)][dP]N[Phe(4-COOH)][Trp(7-Cl)][αMeS][Phe(4-COOH)]H[Sar][Trp(βS-Me)]C-NH2; thioether N-14) | 1.8 | > 1000 | 9.7 |
| CCCC[C@@H]1NC(=O)[C@@H]2CC[C@@H](C2)NC(=O)[C@H]([C@@H](C)c2c[nH]c3c(OC)cccc23)NC(=O)CN(C)C(=O)[C@H](Cc2ccc(C(=O)O)cc2)NC(=O)[C@H](Cc2ccc(C(N)=O)cc2)NC(=O)[C@](C)(CO)NC(=O)[C@H](Cc2c[nH]c3c(Cl)cccc23)NC(=O)[C@H](Cc2ccc(C(=O)O)cc2)NC(=O)[C@H](CC(N)=O)NC(=O)[C@H]2C[C@H](O)CN2C(=O)[C@H](Cc2c[nH]c3ccccc23)NC(=O)[C@@H]2CC[C@@H](O)CN2C(=O)[C@H](Cc2ccncc2)NC1=O [SEQ ID NO. 247] (cyclo([4Pal][Pip(5R-OH)]W[dHyp]N[Phe(4-COOH)][Trp(7-Cl)][αMeS][Phe(4-CONH2)][Phe(4-COOH)][Sar][Trp(βS-Me,7-OMe)][X1][Nle])) | 0.07 | > 1000 | 0.5 |
| CCCC[C@@H]1NC(=O)[C@H]2CC[C@H](C2)NC(=O)[C@H]([C@@H](C)c2c[nH]c3c(OC)cccc23)NC(=O)CN(C)C(=O)[C@H](Cc2ccc(O)cc2)NC(=O)[C@H](Cc2ccc(C(N)=O)cc2)NC(=O)[C@](C)(CO)NC(=O)[C@H](Cc2c[nH]c3c(Cl)cccc23)NC(=O)[C@H](Cc2ccc(C(=O)O)cc2)NC(=O)[C@H](CC(N)=O)NC(=O)[C@H](CCC(=O)O)N(C)C(=O)[C@H](Cc2c[nH]c3ccccc23)NC(=O)[C@@H]2CC[C@@H](O)CN2C(=O)[C@H](Cc2ccncc2)NC1=O [SEQ ID NO. 267] (cyclo([4Pal][Pip(5R-OH)]W[NMeE]N[Phe(4-COOH)][Trp(7-Cl)][αMeS][Phe(4-CONH2)]Y[Sar][Trp(βS-Me,7-OMe)][X13][Nle])) | 0.14 | > 1000 | 1.7 |
| CCCC[C@@H]1NC(=O)[C@@H]2CC[C@@H](C2)NC(=O)[C@H]([C@@H](C)c2c[nH]c3c(OC)cccc23)NC(=O)CN(C)C(=O)[C@H]([C@H](O)c2ccc(C(=O)O)cc2)NC(=O)[C@H]([C@@H](O)c2ccc(C(N)=O)cc2)NC(=O)[C@](C)(CO)NC(=O)[C@H](Cc2c[nH]c3c(C#N)cccc23)NC(=O)[C@H](Cc2ccncc2)NC(=O)[C@H](CC(N)=O)NC(=O)[C@H]2C[C@H](O)CN2C(=O)[C@H](Cc2c[nH]c3ccccc23)NC(=O)[C@@H]2CC[C@@H](O)CN2C(=O)[C@H](Cc2ccncc2)NC1=O [SEQ ID NO. 155] (cyclo([4Pal][Trp(7-CN)][αMeS][X28][X24][Sar][Trp(βS-Me,7-OMe)][X1][Nle][4Pal][Pip(5R-OH)]W[dHyp]N)) | 0.02 | > 1000 | 0.9 |
| CCCC[C@@H]1NC(=O)CSC[C@@H](C(N)=O)NC(=O)[C@H]([C@@H](C)c2c[nH]c3c(OC)cccc23)NC(=O)CN(C)C(=O)[C@H](Cc2ccc(O)cc2)NC(=O)[C@H](Cc2ccc(C(=O)O)cc2)NC(=O)[C@](C)(CO)NC(=O)[C@H](Cc2c[nH]c3c(Cl)cccc23)NC(=O)[C@H](Cc2ccc(OC)cc2)NC(=O)[C@H](CC(N)=O)NC(=O)[C@H](CCC(=O)O)N(C)C(=O)[C@H](Cc2c[nH]c3ccccc23)NC(=O)[C@@H]2CNCCN2C(=O)[C@H](Cc2ccncc2)NC1=O [SEQ ID NO. 218] ({CH2CO}-[Nle][4Pal][Pip(4-aza)]W[NMeE]NY(Me)[Trp(7-Cl)][αMeS][Phe(4-COOH)]Y[Sar][Trp(βS-Me,7-OMe)]C-NH2; thioether N-14) | 0.5 | > 1000 | 3.4 |
